Data published in the NIST ThermoML archive (doi:10.1016/j.fluid.2018.01.017).
± gives the expanded uncertainty stated by the source.

Key:
[1] = refractive index (Na D-line) (dimensionless); xn = mol fraction of the nth substance listed; details: 298.15 K, 86.6 kPa, Liquid, Standard Abbe refractometry
[2] = xn = mol fraction of the nth substance listed; details: 298.15 K, 86.6 kPa, Liquid; for speed of sound: Anton Parr, DSA 5000 densimeter and speed of sound analyzer; for mass density: Vibrating tube method

SMILES | refractive index ([1]; x2 = 0.5) | speed of sound ([2]; x2 = 0.5) | mass density ([2]; x2 = 0.5) | refractive index ([1]; x2 = 0.333) | speed of sound ([2]; x2 = 0.333) | mass density ([2]; x2 = 0.333)
O=C(O)CC(=O)O [propanedioic acid] + C[N+](C)(C)CCO.[Cl-] | 1.4887 ± 0.0005 | 1962.7 ± 1.7 m/s | 1251.47 ± 0.54 kg/m3 |  |  | 
O=C(O)C(=O)O [ethanedioic acid] + C[N+](C)(C)CCO.[Cl-] | 1.4809 ± 0.0005 | 1925 ± 1.7 m/s | 1210.93 ± 0.5 kg/m3 |  |  | 
NC(N)=O [urea] + C[N+](C)(C)CCO.[Cl-] |  |  |  | 1.5041 ± 0.0006 | 2062.3 ± 2.2 m/s | 1193.93 ± 0.94 kg/m3
